Test results: patent US7786083B2, “Metastin derivatives and use thereof” (Takeda Pharmaceutical Company Limited, priority 2006, dated 2010)
*1 amine or outer side, *2 acyl side, *3 side chain or, on linkers, in order; H or OH if unused. Where a SMILES comes first, the peptide text is derived from it. [ ]: non-standard residue; d: D form. Glyψ(E-CHCH)Leu = CC(C)C[C@H](/C=C/CN[*:1])C(=O)[*:2]; X1 = CC(C)C[C@H](CCCN[*:1])C(=O)[*:2]; Arg(Me) = CNC(=N)NCCC[C@H](N)C(=O)O; Dap(CONH2) = NC(=O)NC[C@H](N)C(=O)O; Ala(cPr) = N[C@@H](CC1CC1)C(=O)O; Hyp = O=C(O)[C@@H]1C[C@@H](O)CN1; Aad = N[C@@H](CCCC(=O)O)C(=O)O; Cha = N[C@@H](CC1CCCCC1)C(=O)O

System: metastin receptors
Assay: Measurement of agonist activity by assaying changes in intracellular calcium ion level (FLIPR, Fluo-4 NW)
Type: cell-based, human
Conditions: specific activity of the EC50 of a test compound based on the EC50 of Metastin (45-54), metastin receptor expression CHO cells
Experimental: 1) Preparation of Human Metastin and Rat Metastin Stable Expression Cell Lines
Human metastin and rat metastin stable expression cell lines were obtained by transfecting the expression plasmid for animal cells into CHO/dhfr^− cells using CellPhect Transfection Kit (manufactured by GE Healthcare). First, 240 μL of Buffer A (attached to CellPhect Transfection Kit) was added to 9.6 μg of plasmid DNA dissolved in 240 μL of distilled water followed by stirring. After the mixture was settled for 10 minutes, 480 μL of Buffer B (attached to CellPhect Transfection Kit) was added to the mixture, which was vigorously stirred to form liposomes containing the DNA. Then, 4×10^5 CHO/dhfr^− cells (obtained from ATCC) were inoculated on a 60 mm Petri dish. After culturing the cells in Ham's F-12 medium (manufactured by Nissui Seiyaku Co., Ltd.) supplemented with 10% fetal bovine serum (manufactured by BIO […], Inc.) at 37° C. for 2 days in 5% carbon dioxide gas, […] of the liposomes were dropwise added to the cells on the Petri dish. After culturing the cells in a CO2 incubator (5% CO2, 37° C.) for 6 hours, the cells were washed twice with serum-free Ham's F-12 medium and 3 mL of 15% glycerol was added to the cells on the Petri dish followed by treatment for 2 minutes. The cells were again washed twice with serum-free Ham's F-12 medium followed by incubation in Ham's F-12 medium supplemented with 10% fetal bovine serum in a CO2 incubator (5% CO2, 37° C.) for 15 hours. The cells were dispersed by trypsin treatment to recover from the Petri dish. The recovered cells were inoculated on a 6-well plate in 1.25×10^4 cells each/well and incubation was initiated in a CO2 incubator (5% CO2, 37° C.) in Dulbecco's modified Eagle medium (DMEM, manufactured by Nissui Seiyaku) containing 10% dialyzed fetal bovine serum (manufactured by JRH BIOSCIENCES, Inc.). The plasmid-transfected CHO transformants grew in the medium but the non-transfected cells gradually died, accordingly the medium was exchanged on Days 1 and 2 after the initiation of incubation to remove the dead cells. Approximately 20 colonies of the CHO transformants that kept growing on Days 8 to 10 after the incubation were isolated. From the cells in these colonies, cells showing high reactivity with the ligand peptide metastin (hereinafter merely referred to as h175 KB19 and h175 KB29 strains) were selected to provide for the following experiment.
Human metastin expression CHO cell line (h175 KB19 strain is described in a separate section) and rat metastin expression CHO cell line (h175 KB29 strain is described in a separate section) were seeded in a 96-well plate (type 3904, manufactured by Corning) at 3×10^4 cells/well, followed by incubation in a CO2 incubator (5% CO2, 37° C.) for 24 hours. For the medium, MEMα medium (nucleic acid-free, manufactured by Nikken Bio Medical Laboratory) supplemented with dialyzed 10% fetal bovine serum (manufactured by Thermo, MultiSer) was used.
3) Loading with Fluo-4 NW in Cells
As an assay buffer, 1× Hanks' balanced salt solution (HBSS, manufactured by GIBCO) supplemented with 0.1% BSA, 20 mM HEPES (pH 7.4, manufactured by GIBCO) and 1 mM Probenecid (manufactured by Molecular Probes) was prepared. The medium in the wells of the cell-seeded plate was removed and 100 μL each of the assay buffer (kept warm at 37° C.) was added to each well. After 10 mL of the assay buffer (the volume for assaying two plates) was charged in one Fluo-4NW dye mix (Component A, Fluo-4 NW calcium assay kit (starter pack), manufactured by Molecular Probes) bottle, the mixture was gently stirred to prepare the Fluo-4 NW loading solution. This loading solution was charged in each well by 50 μl each and reacted in a CO2 incubator (5% CO2, 37° C.) for 30 minutes for loading with Fluo-4 NW into the cells. Subsequently, the cells were settled at room temperature (25° C.) for 15 minutes and then used for assay.
4) Measurement of Agonist Activity […]

Compound: CNC(=N)NCCC[C@H](NC(=O)[C@@H](CCCNC(=O)[C@H](Cc1ccccc1)NC(=O)[C@@H](NC(=O)[C@H](CC(N)=O)NC(=O)[C@@H]1C[C@@H](O)CN1C(=O)[C@@H](Cc1ccc(O)cc1)NC(C)=O)[C@@H](C)O)CC(C)C)C(=O)N[C@@H](Cc1c[nH]c2ccccc12)C(N)=O [Compound No. 893, des(1)-Ac-[D-Tyr2,Hyp3,Thr5,Gly7Ψ((E)CH2CH2)Leu8,Arg(Me)9,Trp10]MS10] (Ac-[dY][Hyp]NTF[X1][Arg(Me)]W-NH2)
- Specific Activity: 0.8

Compound: CNC(=N)NCCC[C@H](NC(=O)[C@H](CC1CC1)NC(=O)CNC(=O)[C@H](CC1CCCCC1)NC(=O)[C@@H](NC(=O)[C@H](CC(N)=O)NC(=O)[C@@H]1C[C@@H](O)CN1C(=O)[C@@H](Cc1ccc(O)cc1)NC(C)=O)[C@@H](C)O)C(=O)N[C@@H](Cc1c[nH]c2ccccc12)C(N)=O [Compound No. 894, des(1)-Ac-[D-Tyr2,Hyp3,Thr5,Cha6,Ala(cPr)8,Arg(Me)9,Trp10]MS10] (Ac-[dY][Hyp]NT[Cha]G[Ala(cPr)][Arg(Me)]W-NH2)
- Specific Activity: 0.5

Compound: CNC(=N)NCCC[C@H](NC(=O)[C@H](CC1CC1)NC(=O)CNC(=O)[C@H](CC1CCCCC1)NC(=O)[C@@H](NC(=O)[C@H](CC(N)=O)NC(=O)[C@H](CCC(=O)O)NC(=O)[C@@H](Cc1ccc(O)cc1)NC(C)=O)[C@@H](C)O)C(=O)N[C@@H](Cc1c[nH]c2ccccc12)C(N)=O [Compound No. 895, des(1)-Ac-[D-Tyr2,Glu3,Thr5,Cha6,Ala(cPr)8,Arg(Me)9,Trp10]MS10] (Ac-[dY]ENT[Cha]G[Ala(cPr)][Arg(Me)]W-NH2)
- Specific Activity: 0.4

Compound: CNC(=N)NCCC[C@H](NC(=O)[C@@H](/C=C/CNC(=O)[C@H](CC1CCCCC1)NC(=O)[C@@H](NC(=O)[C@H](CC(N)=O)NC(=O)[C@@H]1C[C@@H](O)CN1C(=O)[C@@H](Cc1ccc(O)cc1)NC(C)=O)[C@@H](C)O)CC(C)C)C(=O)N[C@@H](Cc1c[nH]c2ccccc12)C(N)=O [Compound No. 902, des(1)-Ac-[D-Tyr2,Hyp3,Thr5,Cha6,Gly7Ψ((E)CH═CH)Leu8,Arg(Me)9,Trp10]MS10] (Ac-[dY][Hyp]NT[Cha][Glyψ(E-CHCH)Leu][Arg(Me)]W-NH2)
- Specific Activity: 0.6

Compound: CNC(=N)NCCC[C@H](NC(=O)[C@@H](/C=C/CNC(=O)[C@H](CC1CCCCC1)NC(=O)[C@@H](NC(=O)[C@H](CNC(N)=O)NC(=O)[C@@H]1C[C@@H](O)CN1C(=O)[C@@H](Cc1ccc(O)cc1)NC(C)=O)[C@@H](C)O)CC(C)C)C(=O)N[C@@H](Cc1c[nH]c2ccccc12)C(N)=O [Compound No. 903, des(1)-Ac-[D-Tyr2,Hyp3,Alb4,Thr5,Cha6,Gly7Ψ((E)CH═CH)Leu8,Arg(Me)9,Trp10]MS10] (Ac-[dY][Hyp][Dap(CONH2)]T[Cha][Glyψ(E-CHCH)Leu][Arg(Me)]W-NH2)
- Specific Activity: 0.4

Compound: CNC(=N)NCCC[C@H](NC(=O)[C@@H](/C=C/CNC(=O)[C@H](CC1CCCCC1)NC(=O)[C@@H](NC(=O)[C@H](CC(N)=O)NC(=O)[C@H](CCC(=O)O)NC(=O)[C@@H](Cc1ccc(O)cc1)NC(C)=O)[C@@H](C)O)CC(C)C)C(=O)N[C@@H](Cc1c[nH]c2ccccc12)C(N)=O [Compound No. 904, des(1)-Ac-[D-Tyr2,Glu3,Thr5,Cha6,Gly7Ψ((E)CH═CH)Leu8,Arg(Me)9,Trp10]MS10] (Ac-[dY]ENT[Cha][Glyψ(E-CHCH)Leu][Arg(Me)]W-NH2)
- Specific Activity: 0.5

Compound: CNC(=N)NCCC[C@H](NC(=O)[C@@H](/C=C/CNC(=O)[C@H](CC1CCCCC1)NC(=O)[C@@H](NC(=O)[C@H](CNC(N)=O)NC(=O)[C@H](CCC(=O)O)NC(=O)[C@@H](Cc1ccc(O)cc1)NC(C)=O)[C@@H](C)O)CC(C)C)C(=O)N[C@@H](Cc1c[nH]c2ccccc12)C(N)=O [Compound No. 905, des(1)-Ac-[D-Tyr2,Glu3,Alb4,Thr5,Cha6,Gly7Ψ((E)CH═CH)Leu8,Arg(Me)9,Trp10]MS10] (Ac-[dY]E[Dap(CONH2)]T[Cha][Glyψ(E-CHCH)Leu][Arg(Me)]W-NH2)
- Specific Activity: 0.5

Compound: CNC(=N)NCCC[C@H](NC(=O)[C@@H](/C=C/CNC(=O)[C@H](Cc1ccccc1)NC(=O)[C@@H](NC(=O)[C@H](CNC(N)=O)NC(=O)[C@@H]1C[C@@H](O)CN1C(=O)[C@@H](Cc1ccc(O)cc1)NC(C)=O)[C@@H](C)O)CC(C)C)C(=O)N[C@@H](Cc1c[nH]c2ccccc12)C(N)=O [Compound No. 906, des(1)-Ac-[D-Tyr2,Hyp3,Alb4,Gly7Ψ((E)CH═CH)Leu8,Arg(Me)9,Trp10]MS10] (Ac-[dY][Hyp][Dap(CONH2)]TF[Glyψ(E-CHCH)Leu][Arg(Me)]W-NH2)
- Specific Activity: 0.6

Compound: CNC(=N)NCCC[C@H](NC(=O)[C@@H](/C=C/CNC(=O)[C@H](Cc1ccccc1)NC(=O)[C@@H](NC(=O)[C@H](CC(N)=O)NC(=O)[C@H](CCC(=O)O)NC(=O)[C@@H](Cc1ccc(O)cc1)NC(C)=O)[C@@H](C)O)CC(C)C)C(=O)N[C@@H](Cc1c[nH]c2ccccc12)C(N)=O [Compound No. 907, des(1)-Ac-[D-Tyr2,Glu3,Thr5,Gly7Ψ((E)CH═CH)Leu8,Arg(Me)9,Trp10]MS10] (Ac-[dY]ENTF[Glyψ(E-CHCH)Leu][Arg(Me)]W-NH2)
- Specific Activity: 0.6

Compound: CNC(=N)NCCC[C@H](NC(=O)[C@@H](/C=C/CNC(=O)[C@H](Cc1ccccc1)NC(=O)[C@@H](NC(=O)[C@H](CNC(N)=O)NC(=O)[C@H](CCC(=O)O)NC(=O)[C@@H](Cc1ccc(O)cc1)NC(C)=O)[C@@H](C)O)CC(C)C)C(=O)N[C@@H](Cc1c[nH]c2ccccc12)C(N)=O [Compound No. 908, des(1)-Ac-[D-Tyr2,Glu3,Alb4,Thr5,Gly7Ψ((E)CH═CH)Leu8,Arg(Me)9,Trp10]MS10] (Ac-[dY]E[Dap(CONH2)]TF[Glyψ(E-CHCH)Leu][Arg(Me)]W-NH2)
- Specific Activity: 0.5

Compound: CNC(=N)NCCC[C@H](NC(=O)[C@H](CC1CC1)NC(=O)CNC(=O)[C@H](CC1CCCCC1)NC(=O)[C@@H](NC(=O)[C@H](CC(N)=O)NC(=O)[C@H](CC(=O)O)NC(=O)[C@@H](Cc1ccc(O)cc1)NC(C)=O)[C@@H](C)O)C(=O)N[C@@H](Cc1c[nH]c2ccccc12)C(N)=O [Compound No. 909, des(1)-Ac-[D-Tyr2,Asp3,Thr5,Cha6,Ala(cPr)8,Arg(Me)9,Trp10]MS10] (Ac-[dY]DNT[Cha]G[Ala(cPr)][Arg(Me)]W-NH2)
- Specific Activity: 2.5

Compound: CNC(=N)NCCC[C@H](NC(=O)[C@H](CC1CC1)NC(=O)CNC(=O)[C@H](CC1CCCCC1)NC(=O)[C@@H](NC(=O)[C@H](CC(N)=O)NC(=O)[C@H](CCCC(=O)O)NC(=O)[C@@H](Cc1ccc(O)cc1)NC(C)=O)[C@@H](C)O)C(=O)N[C@@H](Cc1c[nH]c2ccccc12)C(N)=O [Compound No. 910, des(1)-Ac-[D-Tyr2,Aad3,Thr5,Cha6,Ala(cPr)8,Arg(Me)9,Trp10]MS10] (Ac-[dY][Aad]NT[Cha]G[Ala(cPr)][Arg(Me)]W-NH2)
- Specific Activity: 1.1

Compound: CNC(=N)NCCC[C@H](NC(=O)[C@H](CC1CC1)NC(=O)CNC(=O)[C@H](CC1CCCCC1)NC(=O)[C@@H](NC(=O)[C@H](CC(N)=O)NC(=O)[C@H](CCCCN)NC(=O)[C@@H](Cc1ccc(O)cc1)NC(C)=O)[C@@H](C)O)C(=O)N[C@@H](Cc1c[nH]c2ccccc12)C(N)=O [Compound No. 911, des(1)-Ac-[D-Tyr2,Lys3,Thr5,Cha6,Ala(cPr)8,Arg(Me)9,Trp10]MS10] (Ac-[dY]KNT[Cha]G[Ala(cPr)][Arg(Me)]W-NH2)
- Specific Activity: 0.7
